Blank lines part the entries; values can stand above or below the molecule they belong to.
Assays:
[1] = molecular target: T1, rat follicle stimulating hormone receptor (rFSHR) (Rattus norvegicus, UniProt P20395); assay: Intracellular cAMP measurement (HTRF) assay, antagonism of EC70 of hFSH; type: cell-based; settings: HEK293 cells expressing rFSHR, 1 ng/ml hFSH (EC70), read-out: Class (IC50 to antagonise an EC70 of FSH receptors agonist such as hFSH)
T1 construct: expressed in transfected cells
T1 sequence (P20395 18-692): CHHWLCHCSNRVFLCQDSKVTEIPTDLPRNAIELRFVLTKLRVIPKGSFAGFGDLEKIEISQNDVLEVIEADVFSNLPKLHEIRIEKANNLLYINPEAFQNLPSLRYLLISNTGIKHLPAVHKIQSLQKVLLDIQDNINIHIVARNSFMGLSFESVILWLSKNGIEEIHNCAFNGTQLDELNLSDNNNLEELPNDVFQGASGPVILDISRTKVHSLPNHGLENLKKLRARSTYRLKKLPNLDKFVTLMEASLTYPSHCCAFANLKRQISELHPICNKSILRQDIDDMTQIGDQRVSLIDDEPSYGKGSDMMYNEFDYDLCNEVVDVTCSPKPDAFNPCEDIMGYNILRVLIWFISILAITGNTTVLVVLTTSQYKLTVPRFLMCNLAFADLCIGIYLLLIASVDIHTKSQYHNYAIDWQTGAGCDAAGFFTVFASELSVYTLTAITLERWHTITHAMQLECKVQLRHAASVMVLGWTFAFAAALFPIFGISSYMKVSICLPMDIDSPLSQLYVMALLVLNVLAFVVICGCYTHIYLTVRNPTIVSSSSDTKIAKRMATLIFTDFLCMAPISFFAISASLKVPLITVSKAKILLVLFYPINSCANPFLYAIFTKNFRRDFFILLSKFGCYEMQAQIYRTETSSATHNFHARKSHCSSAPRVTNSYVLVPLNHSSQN
Text: Intracellular cAMP Measurement Assay
The Intracellular cAMP measurement assay is a functional cell-based assay used to study GPCR function. This method relies on a Time-Resolved Fluorescence (HTRF) assay to measure the cAMP accumulation upon receptor-mediated Gs protein activation in cells expressing recombinant GPCR or in cells from native tissues. In brief, this method is a competitive immunoassay between native cAMP produced by cells and the cAMP labeled with a fluorescent tag. The endogenously produced cAMP competes with exogenous added d2-labelled cAMP for the cAMP binding site on a Eu3+ cryptate labelled anti-cAMP antibody. The d2-labelled cAMP and the Eu^3+ labelled antibody produces a basal fluroresence via HTRF and therefore an intracellular increase in unlabelled cAMP is detected as decrease in this signal. cAMP is one of the most important intracellular mediators. Its concentration in cells can be increased upon binding of many hormones to their receptors. The most studied pathway consists in the release of α-subunit GTP-binding proteins following ligand-receptor interaction, which in turn activates or inhibits the ATP/cAMP conversion function of adenylate cyclase enzyme. cAMP is then involved in many complex regulatory processes such as protein kinase activation or ion channel gating. This method is widely used to study receptor activation of G protein in cells over-expressing GPCRs or in native cells, including FSH receptors expressing cells (Gabriel et al., Assay Drug Dev. Technol., 1, 291-303, 2003).
Transfection and cell culture: The cDNA encoding the rat follicle stimulating hormone receptor (rFSHR), (accession number NM_199237, NCBI Nucleotide database browser) was subcloned into an expression vector containing also the hygromycin resistance gene. Transfection of this vector into HEK293 cells with PolyFect reagent (Qiagen) according to supplier's protocol, and hygromycin treatment allowed selection of antibiotic resistant cells which had integrated stably one or more copies of the plasmid. Positive cellular clones expressing rFSHR were identified in a functional assay measuring cAMP production in cells following stimulation by addition of purified human follicle stimulating hormone (hFSH).
HTRF cAMP assay: On the day of the experiment, cells were detached from the Petri dish and distributed in a low volume, black-walled 384-well plate at a density of 5,000 cells/well in an assay buffer containing 1 mM IBMX to prevent cAMP degradation by cytoplasmic phosphodiesterases. The determination of the cAMP accumulation was performed using an HTRF assay (Trinquet et al., Anal. Biochem., 358, 126-135, 2006). Briefly, cells were incubated for 3 min in the presence of increasing concentrations of negative allosteric modulators (from 1 nM to 60 μM) and then 30 min in the presence of 1 ng/ml of hFSH, an agonist of rat FSH receptor, that has been determined in previous experiments to correspond to the EC70, a concentration that gives 70% of the maximal response of the agonist, and is in accordance with published data (Fox et al., Mol. Endocrin., 15, 378-389, 2001). […] Cells were then lysed by adding the HTRF assay components, the europium cryptate-labeled anti-cAMP antibody, and the XL665-labeled cAMP analog, previously diluted in a HEPES buffer (50 mM, pH 7.0) containing 0.8 M potassium fluoride, 0.2% (w/v) BSA, and 1% (v/v) Triton X-100, a percentage of detergent that ensure complete cell lysis. Assay was then incubated for 1 hr at room temperature, and HTRF signal was measured after excitation at 337 nm, and dual emission at 620 and 665 nm, using a RubyStar fluorimeter (BMG Labtechnologies). Moreover, the fluorescence ratio of an appropriate range of known concentrations of cAMP standards was also included on each assay plate to produce a standard cAMP curve. […]

SMILES: COc1ccc(C(=O)Nc2ccc(C(C)(C)CNC(=O)Cc3c[nH]c4ccccc34)cc2)cc1OC [Example 126]
melting point: 94 to 96 °C
IC50 [1]: 150 to 400 nM

SMILES: COc1ccc(C(=O)Nc2ccc(C(C)(C)CNC(=O)c3n[nH]c4ccccc34)cc2)cc1OC [Example 87]
melting point: 214 to 216 °C
IC50 [1]: 150 to 400 nM

SMILES: COc1ccc(C(=O)Nc2ccc(C(C)(C)CNC(=O)c3csc4ccccc34)cc2)cc1OC [Example 116]
melting point: 145 to 147 °C
IC50 [1]: < 150 nM

SMILES: COc1ccc(C(=O)Nc2ccc(C(C)(C)C#N)c(-c3cccc(Cl)c3)c2)cc1OC [Example 157, N-[3′-Chloro-6-(cyano-dimethyl-methyl)-biphenyl-3-yl]-3,4-dimethoxy-benzamide]
melting point: 144 to 146 °C

SMILES: COc1ccc(C(=O)Nc2ccc(C(C)(C)CNC(=O)c3nc4ccccc4[nH]3)cc2)cc1OC [Example 162, 1H-Benzoimidazole-2-carboxylic acid {2-[4-(3,4-dimethoxy-benzoylamino)-phenyl]-2-methyl-propyl}-amide]
melting point: 223 to 226 °C

SMILES: COc1ccc(C(=O)Nc2ccc(C(C)(C)CNC(=O)c3nc4ccc(F)cc4[nH]3)cc2)cc1OC [Example 193, 6-Fluoro-1H-benzoimidazole-2-carboxylic acid {2-[4-(3,4-dimethoxy-benzoylamino)-phenyl]-2-methyl-propyl}-amide]
melting point: 222 to 224 °C
IC50 [1]: < 150 nM

SMILES: COc1ccc(C(=O)Nc2ccc(C(C)(C)C#N)c(-c3cncnc3)c2)cc1OC [Example 184, N-[4-(Cyano-dimethyl-methyl)-3-pyrimidin-5-yl-phenyl]-3,4-dimethoxy-benzamide]
melting point: 198 to 200 °C
IC50 [1]: ≥ 1000 nM

SMILES: N#CC1(c2ccc(NC(=O)c3ccc4c(c3)OCCO4)cc2)CCCC1 [Example 3, 2,3-Dihydro-benzo[1,4]dioxin-6-carboxylic acid [4-(1-cyano-cyclopentyl)-phenyl]-amide]
melting point: 164 to 167 °C

SMILES: CCOc1ccc(C(=O)Nc2ccc(C(C)(C)C#N)cc2)cc1OCC [Example 160, N-[4-(Cyano-dimethyl-methyl)-phenyl]-3,4-diethoxy-benzamide]
melting point: 138 to 140 °C

Results, then the molecule that gave them:

melting point: 149 to 151 °C
IC50 [1]: 150 to 400 nM
SMILES: COc1ccc(C(=O)Nc2ccc(C(C)(C)CNC(=O)CCc3ccccc3)cc2)cc1OC [Example 34]

melting point: 234 to 237 °C
IC50 [1]: ≥ 1000 nM
SMILES: COc1ccc(C(=O)Nc2ccc(C(C)(C)CNC(C)=O)c(-c3cccnc3)c2)cc1OC [Example 195, N-[4-(2-Acetylamino-1,1-dimethyl-ethyl)-3-pyridin-3-yl-phenyl]-3,4-dimethoxy-benzamide]

melting point: 176 to 178 °C
IC50 [1]: 400 to 1000 nM
SMILES: COc1ccc(C(=O)Nc2ccc(C(C)(C)CNC(=O)c3cc4ccccc4n3C)cc2)cc1OC [Example 108]

melting point: 194 to 196 °C
IC50 [1]: ≥ 1000 nM
SMILES: COc1ccc(C(=O)Nc2ccc(C(C)(C)CNC(=O)c3ccc4nccn4c3)cc2)cc1OC [Example 190]

melting point: 189 to 190 °C
IC50 [1]: 150 to 400 nM
SMILES: COc1ccc(C(=O)Nc2ccc(C(C)(C)CNC(=O)c3ccsc3)cc2)cc1OC [Example 72]

melting point: 186 to 188 °C
SMILES: COc1ccc(C(=O)Nc2ccc(C(C)(C)CNC(C)=O)c(F)c2)cc1OC [Example 151, N-[4-(2-Acetylamino-1,1-dimethyl-ethyl)-3-fluoro-phenyl]-3,4-dimethoxy-benzamide]

melting point: 165 to 167 °C
SMILES: COc1ccc(C(=O)Nc2ccc(C3(CNC(=O)C(C)(C)C)CCCC3)cc2)cc1OC [Example 23, N-(4-{1-[(2,2-Dimethyl-propionylamino)-methyl]-cyclopentyl}-phenyl)-3,4-dimethoxy-benzamide]

melting point: 132 to 134 °C
SMILES: COc1ccc(C(=O)Nc2cccc(C(C)(C)CNC(C)=O)c2)cc1OC [Example 88, N-[3-(2-Acetylamino-1,1-dimethyl-ethyl)-phenyl]-3,4-dimethoxy-benzamide]

melting point: 195 to 197 °C
SMILES: COc1ccc(C(=O)Nc2ccc(C(C)(C)CNC(C)=O)cc2)cc1OC [Example 26, N-[4-(2-Acetylamino-1,1-dimethyl-ethyl)-phenyl]-3,4-dimethoxy-benzamide]

melting point: 203 to 206 °C
IC50 [1]: < 150 nM
SMILES: CCc1cc(NC(=O)c2ccc(OC)c(OC)c2)ccc1C(C)(C)CNC(C)=O [Example 200, N-[4-(2-Acetylamino-1,1-dimethyl-ethyl)-3-ethyl-phenyl]-3,4-dimethoxy-benzamide]

Source: patent US20100249123A1, “NOVEL BENZAMIDE DERIVATIVES AS MODULATORS OF THE FOLLICLE STIMULATING HORMONE” (ADDEX PHARMA SA, priority 2007, published 2010)
